Source: PMC4564450, “Oral and inhaled p38 MAPK inhibitors: effects on inhaled LPS challenge in healthy subjects” (European Journal of Clinical Pharmacology, 2015)
Each block holds one compound with its values, some of them ahead of it.

Key:
[1] = Plasma pharmacokinetics (sparse sampling); format: in vivo, human; conditions: for Plasma concentration: PF-03715455 20 mg inhaled; for concentration at 23 h / concentration at 30.5 h: human, plasma, po, 30 mg, PH-797804 30 mg oral; for concentration at 23 h: 23 h post dose; for concentration at 30.5 h: 30.5 h post dose
[2] = Drug concentration in sputum supernatant; format: in vivo, human; conditions: study 2, ten subjects, PF-03715455 inhaled dose, PH-797804 oral dose
[3] = Safety: treatment emergent adverse events; format: in vivo, human; conditions: for safety and tolerability: single doses, healthy subjects, studies 1 and 2
Experimental: Safety was assessed in these studies by physical examinations, haematology and biochemistry measurements, ECG analysis and reporting of any adverse events.
Summary of Number ofSubjects Experiencing Treatment EmergentAdverse Events by MedDRA System Organ Class

[4] = test system: phospho-HSP27 expression in sputum macrophages; assay: Immunocytochemistry of sputum macrophages: phospho-HSP27; format: in vivo, human; conditions: study 2; PH-797804 30 mg oral or PF-03715455 20 mg inhaled; Post-LPS
Experimental: Frozen cytospins created from sputum cells were analysed for phosphorylated-Heat Shock Protein 27 (phospho-HSP27) and phospho-p38 expression in sputum macrophages. The methods are fully described in the online supplement. Phospho-p38 and phospho-HSP27 immunoreactivity is presented as percentage of the macrophage population. All analyses were carried out by blinded observers.
Frozen cytospins created from sputum cells were thawed and the cells were fixed in 4% paraformaldehyde in PBS for 10 minutes at room temperature, followed by blocking in normal serum. […] Phospho-p38 and phospho-HSP27 were detected using biotinylated goat anti-rabbit IgG secondary antibody (Vector Labs, Peterborough, UK) in conjunction with an avidin–biotin peroxidase complex (Vector Labs) and 3,3’-diaminobenzidine (DAB) substrate. […]
Digital micrographs were obtained through the use of a Nikon Eclipse 80i microscope (Nikon UK Ltd, Surrey, UK) equipped with a QImaging digital camera (Media cybernetics, Marlow, UK) and ImageProPlus 5.1 software (Media Cybernetics). Sputum macrophages (determined by morphology) were analysed for phospho-p38 and phospho-HSP27 expression following single label immunohistochemistry utilising the ImagePro Plus image analysis software; at least 200 macrophages per cytospin were counted. […]

[5] = healthy subjects; ref previous phase 1 studies (unpublished); cited from earlier work
[6] = test system: IL-8 production from epithelial cells; parameters: method as in Pfizer, data on file; conditions: ref Pfizer, data on file; cited from earlier work
[7] = test system: sputum neutrophils and macrophages after inhaled LPS; assay: Inhaled LPS challenge in healthy subjects: induced sputum cell counts; format: in vivo, human; conditions: for attenuation of the modelled LPS response (sputum neutrophil percentage): PH-797804: studies 1 and 2, PF-03715455: study 2; for Mean (SD) sputum neutrophil percentage: 6 h post-LPS; for Macrophage Differential in sputum / Total Cell Count in sputum / Total Macrophage Count in sputum / Total Neutrophil Count in sputum: ANCOVA model mean; for Macrophage Differential in sputum, difference between the active treatment mean and the placebo mean: footnote: difference, not ratio
Experimental: Three randomised, double-blind, placebo-controlled crossover studies were performed; the effects of a single dose of active treatment was investigated in all three studies. […] Studies 2 and 3 were conducted at two UK centres: Quintiles Drug Research Unit, London, and Medicines Evaluation Unit, Manchester. […] The studies were performed during the following time periods: study 1, Sep 2006–Mar 2008; study 2, Jan 2011–Dec 2011; and study 3, Jul 2011–Jan 2012. The design of all three studies was similar. A baseline sputum sample was obtained within 14 days of the first study period when subjects were administered a single dose of randomised treatment. […] Induced sputum was obtained 6 h later to coincide with the maximal inflammatory response caused by inhaled LPS. […] This criterion was used to ensure that sputum cell counts after LPS challenge had returned to close to the original baseline values; this was done to reduce data variability between treatment periods. […] For each challenge, a 1-mg vial of lyophilised LPS (Escherichia coli serotype O26:B6, ref. L-2654, Sigma-Aldrich, Dorset, UK) was diluted with 4 mL of 0.9 % w/v sodium chloride. The reconstitution produced a 0.25 mg/mL solution, of which 2 mL was placed into the pre-calibrated dosimeter pot and administered via five inhalations from a breath-activated dosimeter (Mefar dosimeter MB3, Brescia, Italy). Each inhalation was performed over 3 s with a 6-s breath hold. […] Sputum was induced using normal saline after inhalation of salbutamol, and processing was performed using dithiothreitol (DTT) as previously described. The supernatants were stored at −80 °C for later analysis, while cells were used to produce cytoslides (Cytospin 4, Shandon, Runcorn, UK) for differential cell counting and immunocytochemistry. […] Cell viability was analysed by trypan blue exclusion. Cytoslides with % squamous cell counts <20 % were deemed to be of acceptable quality for differential cell counting. Unfixed cytoslides were wrapped in aluminium foil and stored frozen at −80 °C for immunocytochemistry. Sputum neutrophil percentage was the primary endpoint for all three studies. The neutrophil percentage was modelled using a mixed effects analysis of covariance (ANCOVA) model appropriate for a two-period, two-treatment or three-period, three-treatment crossover design. The fixed effects in the model were treatment and period. Subjects were modelled as a random effect. Additionally, the period-specific baseline was modelled as a covariate. This model was used for all sputum inflammatory markers, including the immunohistocytochemistry, where cell counts were log transformed before analyzing the data and percent differentials were not transformed. […] Ninety percent confidence intervals of the difference (non-transformed data) or the ratio (log-transformed data) were constructed based on the ANCOVA model.

[8] = study 2, PF-03715455 20mg (n=27), PH-797804 30mg (n=23)
[9] = study 2, PF-03715455 20mg (n=27), PH-797804 30mg (n=23), hangover (PF-03715455), loss of libido and insomnia (PH-797804)
[10] = study 2, PH-797804 30 mg oral (p = 0.0001) or PF-03715455 20 mg inhaled (p = 0.031), single dose
[11] = study 2, PH-797804 30 mg oral or PF-03715455 20 mg inhaled, single dose
[12] = study 2, PH-797804 30 mg oral or PF-03715455 20 mg inhaled, post LPS
[13] = study 2, post LPS, listed as PF-03715445
[14] = study 1, PH-797804 30 mg oral, post LPS

Plasma concentration ([1]; study 2, 1.5 h post dose): 472.6 (116.4) pg/mL | Plasma concentration ([1]; study 2, 6.5 h post dose): 110.6 (29.7) pg/mL | geometric mean sputum concentration [2]: 20 nM | sputum concentration, range [2]: 4 to 73 nM
SMILES: CC(C)(C)c1cc(NC(=O)NCc2ccccc2Sc2ccc3nnc(-c4ccccc4SCCO)n3c2)n(-c2ccc(O)c(Cl)c2)n1 [PF-03715455]
safety and tolerability [3]: safe and generally well tolerated | Number of subjects with treatment emergent AE: Eye Disorders [3, 8]: 0 | Number of subjects with treatment emergent AE: Gastrointestinal Disorders [3, 8]: 2 | Number of subjects with treatment emergent AE: General Disorders and Administration Site Conditions [3, 8]: 3 | Number of subjects with treatment emergent AE: Immune system disorders [3, 8]: 0 | Number of subjects with treatment emergent AE: Injury, Poisoning and Procedural Complications [3, 8]: 0 | Number of subjects with treatment emergent AE: Musculoskeletal and Connective tissue disorders [3, 8]: 0 | Number of subjects with treatment emergent AE: Nervous system disorders [3, 8]: 5 | Number of subjects with treatment emergent AE: Respiratory, thoracic and mediastinal disorders [3, 8]: 2 | Number of subjects with treatment emergent AE: Skin and subcutaneous tissue disorders [3, 8]: 1 | Number of subjects with treatment emergent AE: Vascular disorders [3, 8]: 1 | Number of subjects with treatment emergent AE: Psychiatric disorders [3, 9]: 1 | AE requiring withdrawal ([3]; study 2, one subject, 5 days after dosing, investigator did not consider it related): cellulitis | mean percentage of macrophages expressing phospho-HSP27 [4]: 26.89% | time of maximum systemic concentration (tmax) [5]: ~30 min | IL-8 production from epithelial cells [6]: significantly inhibit | attenuation of the modelled LPS response (sputum neutrophil percentage) [7]: approximately 25% | reduction in mean sputum neutrophil percentage post-LPS compared to placebo [7, 10]: 8.0% | Mean (SD) sputum neutrophil percentage [7, 11]: 66.4 (14.0) % | Macrophage Differential in sputum [7, 12]: 30.78% | Total Cell Count in sputum [7, 12]: 3.83e+06 g⁻¹ | Total Macrophage Count in sputum [7, 12]: 1.09e+06 g⁻¹ | Total Neutrophil Count in sputum [7, 12]: 2.43e+06 g⁻¹ | Total Cell Count in sputum, Ratio of Means active/placebo ([7]; study 2, post LPS): 1.02 | Total Macrophage Count in sputum, Ratio of Means active/placebo ([7]; study 2, post LPS): 1.62 | Total Neutrophil Count in sputum, Ratio of Means active/placebo ([7]; study 2, post LPS): no effects | Macrophage Differential in sputum, difference between the active treatment mean and the placebo mean ([7]; study 2, post LPS): significantly attenuated | Macrophage Differential in sputum, difference between the active treatment mean and the placebo mean [7, 13]: 7.97% | Total Neutrophil Count in sputum, Ratio of Means active/placebo [7, 13]: 0.85

concentration at 23 h ([1]; study 1): 38.9 ng/mL | concentration at 30.5 h ([1]; study 1): 37.8 ng/mL | concentration at 23 h ([1]; study 2): 56.8 ng/mL | concentration at 30.5 h ([1]; study 2): 49.2 ng/mL | geometric mean sputum concentration [2]: 4 nM | sputum concentration, range [2]: 2 to 7 nM
SMILES: CNC(=O)c1ccc(C)c(-n2c(C)cc(OCc3ccc(F)cc3F)c(Br)c2=O)c1 [PH-797804]
safety and tolerability [3]: safe and generally well tolerated | Number of subjects with treatment emergent AE: Eye Disorders ([3]; study 1, PH-797804 30mg (n=17)): 1 | Number of subjects with treatment emergent AE: Gastrointestinal Disorders ([3]; study 1, PH-797804 30mg (n=17)): 0 | Number of subjects with treatment emergent AE: General Disorders and Administration Site Conditions ([3]; study 1, PH-797804 30mg (n=17)): 1 | Number of subjects with treatment emergent AE: Infections and infestations ([3]; study 1, PH-797804 30mg (n=17)): 1 | Number of subjects with treatment emergent AE: Injury, Poisoning and Procedural Complications ([3]; study 1, PH-797804 30mg (n=17)): 1 | Number of subjects with treatment emergent AE: Investigation (raised blood potassium) ([3]; study 1, PH-797804 30mg (n=17)): 0 | Number of subjects with treatment emergent AE: Musculoskeletal and Connective tissue disorders ([3]; study 1, PH-797804 30mg (n=17)): 1 | Number of subjects with treatment emergent AE: Nervous system disorders ([3]; study 1, PH-797804 30mg (n=17)): 2 | Number of subjects with treatment emergent AE: Respiratory, thoracic and mediastinal disorders ([3]; study 1, PH-797804 30mg (n=17)): 0 | Number of subjects with treatment emergent AE: Skin and subcutaneous tissue disorders ([3]; study 1, PH-797804 30mg (n=17)): 0 | Number of subjects with treatment emergent AE: Psychiatric disorders ([3]; study 1, PH-797804 30mg (n=17), event was insomnia lasting 1 hr): 1 | Number of subjects with treatment emergent AE: Eye Disorders [3, 8]: 1 | Number of subjects with treatment emergent AE: Gastrointestinal Disorders [3, 8]: 0 | Number of subjects with treatment emergent AE: General Disorders and Administration Site Conditions [3, 8]: 3 | Number of subjects with treatment emergent AE: Immune system disorders [3, 8]: 0 | Number of subjects with treatment emergent AE: Infections and infestations [3, 8]: 2 | Number of subjects with treatment emergent AE: Injury, Poisoning and Procedural Complications [3, 8]: 1 | Number of subjects with treatment emergent AE: Musculoskeletal and Connective tissue disorders [3, 8]: 0 | Number of subjects with treatment emergent AE: Nervous system disorders [3, 8]: 8 | Number of subjects with treatment emergent AE: Respiratory, thoracic and mediastinal disorders [3, 8]: 3 | Number of subjects with treatment emergent AE: Skin and subcutaneous tissue disorders [3, 8]: 0 | Number of subjects with treatment emergent AE: Vascular disorders [3, 8]: 0 | Number of subjects with treatment emergent AE: Psychiatric disorders [3, 9]: 2 | mean percentage of macrophages expressing phospho-HSP27 [4]: 42.27% | time of maximum systemic concentration (tmax) [5]: approximately 24 h | IL-8 production from epithelial cells [6]: significantly inhibit | attenuation of the modelled LPS response (sputum neutrophil percentage) [7]: approximately 50% | Mean (SD) sputum neutrophil percentage ([7]; study 1, PH-797804 30 mg oral single dose): 56.4 (24.0) % | reduction in mean sputum neutrophil percentage post-LPS compared to placebo ([7]; study 1, PH-797804 30 mg oral single dose, p = 0.0096): 15.1% | Total Macrophage Count in sputum [7, 14]: 470000 g⁻¹ | Total Neutrophil Count in sputum [7, 14]: 660000 g⁻¹ | reduction in mean sputum neutrophil percentage post-LPS compared to placebo [7, 10]: 15.3% | Mean (SD) sputum neutrophil percentage [7, 11]: 60.4 (17.9) % | Macrophage Differential in sputum [7, 12]: 36.39% | Total Cell Count in sputum [7, 12]: 2.02e+06 g⁻¹ | Total Macrophage Count in sputum [7, 12]: 620000 g⁻¹ | Total Neutrophil Count in sputum [7, 12]: 1.17e+06 g⁻¹
